According to patent US20140051679A1, “KINASE INHIBITORS AND METHOD OF TREATING CANCER WITH SAME” (UNIVERISTY HEALTH NETWORKS, priority 2011, published 2014):
pIC50: −log10 of the molar value.

Columns and labels:
[1] = tested on: HCT116 colon cancer cells; assay: Cell growth inhibition, Sulforhodamine B assay, HCT116; format: cell-based; details: Homo sapiens, HCT-116, 120 h, 5 days culture, SRB assay, read-out: Cell Line GI50 Range HCT116
[2] = tested on: PA-1 ovarian cancer cells; assay: Cell growth inhibition, Sulforhodamine B assay, PA-1; format: cell-based; details: 120 h, 5 days culture, SRB assay, read-out: Cell Line GI50 Range PA-1
human PLK4 = molecular target: T1, human PLK4 (Homo sapiens, UniProt O00444); assay: PLK4 inhibition assay (indirect ELISA); format: biochemical; details: GST-PLK4 4 nM, 15 μM ATP; read-out: IC50 Ranges PLK4
T1 construct: amino terminal GST fusion of residues 1-391 of human PLK4; made in house; host or cells: E. coli
T1 sequence (O00444 1-391): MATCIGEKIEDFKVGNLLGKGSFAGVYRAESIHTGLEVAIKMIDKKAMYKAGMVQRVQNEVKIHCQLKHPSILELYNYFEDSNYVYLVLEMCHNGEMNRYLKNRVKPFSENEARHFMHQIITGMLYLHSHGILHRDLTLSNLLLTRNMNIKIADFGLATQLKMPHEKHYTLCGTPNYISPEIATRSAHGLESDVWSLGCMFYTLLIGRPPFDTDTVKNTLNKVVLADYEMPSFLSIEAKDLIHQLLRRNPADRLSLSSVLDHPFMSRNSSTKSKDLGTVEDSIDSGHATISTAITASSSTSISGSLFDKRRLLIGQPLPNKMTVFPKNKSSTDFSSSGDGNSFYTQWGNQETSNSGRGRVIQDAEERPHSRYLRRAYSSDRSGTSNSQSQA
Outline: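 Compounds were tested either at a single 10 μM dose or across 10-point titrations (typically 0.5 to 0.001 μM), preincubated 15 min with 4 nM GST-PLK4 (human 1-391, dephosphorylated) before 15 μM ATP was added. MBP substrate phosphorylation over 30 min, pH 7.5 HEPES/MgCl2 buffer, read by HRP/TMB ELISA (450 nm). % inhibition vs. high-activity control; IC50 by logistic fit.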

human TTK = molecular target: T2, human TTK (Homo sapiens, UniProt P33981); assay: TTK inhibition assay (indirect ELISA); format: biochemical; details: GST-TTK 0.68 nM, 16 μM ATP; read-out: IC50 Ranges TTK
T2 construct: amino terminal GST fusion of full length human TTK; purchased Invitrogen
T2 sequence (P33981 1-857): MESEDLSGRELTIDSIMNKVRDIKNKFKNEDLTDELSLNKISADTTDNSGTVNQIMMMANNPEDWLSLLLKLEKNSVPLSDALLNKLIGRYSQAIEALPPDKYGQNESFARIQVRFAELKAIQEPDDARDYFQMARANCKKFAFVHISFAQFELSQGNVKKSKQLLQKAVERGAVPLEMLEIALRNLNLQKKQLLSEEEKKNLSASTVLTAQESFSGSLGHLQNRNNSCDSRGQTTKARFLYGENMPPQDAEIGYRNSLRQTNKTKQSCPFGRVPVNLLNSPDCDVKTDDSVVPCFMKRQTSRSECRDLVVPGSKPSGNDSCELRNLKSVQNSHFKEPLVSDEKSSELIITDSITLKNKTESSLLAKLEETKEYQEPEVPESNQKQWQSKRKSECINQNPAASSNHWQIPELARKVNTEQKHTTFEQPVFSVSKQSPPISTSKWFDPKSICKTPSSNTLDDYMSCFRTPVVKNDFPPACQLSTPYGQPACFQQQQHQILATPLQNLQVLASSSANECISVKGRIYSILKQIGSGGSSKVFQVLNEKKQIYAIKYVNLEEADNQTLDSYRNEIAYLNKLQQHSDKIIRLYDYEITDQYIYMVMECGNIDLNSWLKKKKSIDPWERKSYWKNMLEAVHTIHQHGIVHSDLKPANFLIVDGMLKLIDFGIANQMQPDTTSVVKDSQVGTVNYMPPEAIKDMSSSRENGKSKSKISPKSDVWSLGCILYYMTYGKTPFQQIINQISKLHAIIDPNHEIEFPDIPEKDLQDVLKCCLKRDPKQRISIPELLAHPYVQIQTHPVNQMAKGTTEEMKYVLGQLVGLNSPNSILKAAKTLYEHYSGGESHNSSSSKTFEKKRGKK

Aurora B = molecular target: T3, Aurora B (Homo sapiens, UniProt Q96GD4); assay: Aurora B inhibition assay (Z-Lyte); format: biochemical; details: 28 nM Aurora B, 128 μM ATP; read-out: IC50 Ranges Aurora B
T3 construct: purchased Invitrogen PV3970
Protocol: Aurora B inhibition was determined using the Z-Lyte assay kit from Invitrogen. The assay was performed using the recommended manufacturer's instructions with 128 μM ATP and 28 nM Aurora B (Invitrogen cat #PV3970). The % inhibition values were determined according to the manufacturer's directions and IC50 values were obtained using a non-linear 4 point logistic curve fit (XLfit4, IDBS)

HT29 colon cancer cells = assay: Cell growth inhibition, Sulforhodamine B assay, HT29; format: cell-based; details: Homo sapiens, HT-29, 120 h, 5 days culture, SRB assay, read-out: Cell Line GI50 Range HT29
[3] = tested on: MDA-MB-468 breast cancer cells; assay: Cell growth inhibition, Sulforhodamine B assay, MDA-MB-468; format: cell-based; details: Homo sapiens, 120 h, 5 days culture, SRB assay, read-out: Cell Line GI50 Range MDA-MB-468
[4] = tested on: OVCAR-3 ovarian cancer cells; assay: Cell growth inhibition, Sulforhodamine B assay, OVCAR-3; format: cell-based; details: Homo sapiens, 120 h, 5 days culture, SRB assay, read-out: Cell Line GI50 Range OVCAR-3
[5] = tested on: MDA-MB-231 breast cancer cells; assay: Cell growth inhibition, Sulforhodamine B assay, MDA-MB-231; format: cell-based; details: Homo sapiens, 120 h, 5 days culture, SRB assay, read-out: Cell Line GI50 Range MDA-MB-231

T3 sequence (Q96GD4 whole entry): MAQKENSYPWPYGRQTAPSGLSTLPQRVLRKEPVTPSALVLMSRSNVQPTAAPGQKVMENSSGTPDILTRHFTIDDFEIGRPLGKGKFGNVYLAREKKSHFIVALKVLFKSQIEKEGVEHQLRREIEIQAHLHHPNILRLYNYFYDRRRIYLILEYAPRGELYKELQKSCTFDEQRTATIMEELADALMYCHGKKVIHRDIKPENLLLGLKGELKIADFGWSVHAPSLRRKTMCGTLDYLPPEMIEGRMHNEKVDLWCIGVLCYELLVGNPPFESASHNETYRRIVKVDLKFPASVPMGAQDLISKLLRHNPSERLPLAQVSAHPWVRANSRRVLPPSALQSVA

| SMILES | GI50 [1] | GI50 [2] | pIC50 (human PLK4) | pIC50 (human TTK) | pIC50 (Aurora B) | GI50 (HT29 colon cancer cells) | GI50 [3] | GI50 [4] | GI50 [5] |
| --- | --- | --- | --- | --- | --- | --- | --- | --- | --- |
| O=C(NC(c1ccccc1)C1CC1)c1ccc2[nH]nc(-c3ccc(OC4CCN(CCF)CC4)cc3)c2c1 (centres unmarked) [Example A122, N-(cyclopropyl(phenyl)methyl)-3-(4-((1-(2-fluoroethyl)piperidin-4-yl)oxy)phenyl)-1H-indazole-5-carboxamide] | ≤ 5 µM | ≤ 5 µM | ≥ 5.30 | ≥ 5.30 | – | ≤ 5 µM | ≤ 5 µM | – | – |
| COC(C(=O)Nc1ccc2[nH]nc(-c3ccc(N4CCC(O)CC4)cc3)c2c1)c1ccsc1 (centres unmarked) [Example A87, N-(3-(4-(4-hydroxypiperidin-1-yl)phenyl)-1H-indazol-5-yl)-2-methoxy-2-(thiophen-3-yl)acetamide] | ≤ 5 µM | ≤ 5 µM | ≥ 5.30 | ≥ 5.30 | – | ≤ 5 µM | ≤ 5 µM | – | – |
| CC(C)(O)C1CCN(c2ccc(-c3n[nH]c4ccc(NC(=O)C(c5ccsc5)N5CCC5)cc34)cc2)CC1 (centres unmarked) [Example A201, 2-(azetidin-1-yl)-N-(3-(4-(4-(2-hydroxypropan-2-yl)piperidin-1-yl)phenyl)-1H-indazol-5-yl)-2-(thiophen-3-yl)acetamide] | ≤ 5 µM | ≤ 5 µM | ≥ 5.30 | ≥ 5.30 | ≥ 5.30 | – | ≤ 5 µM | – | – |
| O=CN1CCC(Oc2ccc(-c3n[nH]c4ccc(C(=O)N[C@H](c5ccccn5)C5CC5)cc34)cc2)CC1 [Example A204, (S)—N-(cyclopropyl(pyridin-2-yl)methyl)-3-(4-((1-formylpiperidin-4-yl)oxy)phenyl)-1H-indazole-5-carboxamide] | ≤ 5 µM | ≤ 5 µM | ≥ 5.30 | ≥ 5.30 | ≥ 5.30 | – | ≤ 5 µM | – | – |
| O=C(N[C@@H](c1ccccn1)C1CC1)c1ccc2[nH]nc(-c3ccc(OC4CCN(C5COC5)CC4)cc3)c2c1 [Example A196, (R)—N-(cyclopropyl(pyridin-2-yl)methyl)-3-(4-((1-(oxetan-3-yl)piperidin-4-yl)oxy)phenyl)-1H-indazole-5-carboxamide] | ≤ 5 µM | ≤ 5 µM | ≥ 5.30 | ≥ 5.30 | ≥ 5.30 | – | ≤ 5 µM | – | – |
| O=C(NC(c1ccsc1)C1CCC1)c1ccc2[nH]nc(-c3ccc(N4CCOCC4)cc3)c2c1 (centres unmarked) [Example A123, N-(cyclobutyl(thiophen-3-yl)methyl)-3-(4-morpholinophenyl)-1H-indazole-5-carboxamide] | ≤ 5 µM | ≤ 5 µM | ≥ 5.30 | ≥ 5.30 | ≥ 5.30 | – | ≤ 5 µM | – | – |
| O=C(Nc1ccc2[nH]nc(-c3ccc(N4CCC(O)CC4)cc3)c2c1)C(c1ccsc1)N1CCC1 (centres unmarked) [Example A200, 2-(azetidin-1-yl)-N-(3-(4-(4-hydroxypiperidin-1-yl)phenyl)-1H-indazol-5-yl)-2-(thiophen-3-yl)acetamide] | ≤ 5 µM | ≤ 5 µM | ≥ 5.30 | ≥ 5.30 | ≥ 5.30 | – | ≤ 5 µM | – | – |
| O=C(N[C@H](c1ccccn1)C1CC1)c1ccc2[nH]nc(-c3ccc(OC4CCN(C5COC5)CC4)cc3)c2c1 [Example A197, (S)—N-(cyclopropyl(pyridin-2-yl)methyl)-3-(4-((1-(oxetan-3-yl)piperidin-4-yl)oxy)phenyl)-1H-indazole-5-carboxamide] | ≤ 5 µM | ≤ 5 µM | ≥ 5.30 | ≥ 5.30 | ≥ 5.30 | – | ≤ 5 µM | – | – |
| COc1cc(-c2n[nH]c3ccc(C(=O)NC(c4ccccc4)C4CC4)cc23)ccc1OC1CCN(C=O)CC1 (centres unmarked) [Example A205, N-(cyclopropyl(phenyl)methyl)-3-(4-((1-formylpiperidin-4-yl)oxy)-3-methoxyphenyl)-1H-indazole-5-carboxamide] | ≤ 5 µM | ≤ 5 µM | ≥ 5.30 | ≥ 5.30 | ≥ 5.30 | – | ≤ 5 µM | – | – |
| CN1CCC(Oc2ccc(-c3n[nH]c4ccc(NC(=O)C(c5ccsc5)N5CCCC5)cc34)cc2Cl)CC1 (centres unmarked) [Example A57, N-(3-(3-chloro-4-((1-methylpiperidin-4-yl)oxy)phenyl)-1H-indazol-5-yl)-2-(pyrrolidin-1-yl)-2-(thiophen-3-yl)acetamide] | ≤ 5 µM | – | ≥ 5.30 | ≥ 5.30 | ≥ 5.30 | ≤ 5 µM | ≤ 5 µM | ≤ 5 µM | ≤ 5 µM |

Now from value to compound:

| GI50 [1] | GI50 [2] | pIC50 (human PLK4) | pIC50 (human TTK) | pIC50 (Aurora B) | GI50 (HT29 colon cancer cells) | GI50 [3] | GI50 [4] | GI50 [5] | SMILES |
| --- | --- | --- | --- | --- | --- | --- | --- | --- | --- |
| ≤ 5 µM | ≤ 5 µM | ≥ 5.30 | ≥ 5.30 | ≥ 5.30 | ≤ 5 µM | ≤ 5 µM | – | – | Cc1ccccc1C(NC(=O)c1ccc2[nH]nc(-c3ccc(N4CCOCC4)cc3)c2c1)C1CC1 (centres unmarked) [Example A119, N-(cyclopropyl(o-tolyl)methyl)-3-(4-morpholinophenyl)-1H-indazole-5-carboxamide] |
| ≤ 5 µM | ≤ 5 µM | ≥ 5.30 | ≥ 5.30 | ≥ 5.30 | – | ≤ 5 µM | – | – | O=CN1CCC(Oc2ccc(-c3n[nH]c4ccc(C(=O)N[C@@H](c5ccccn5)C5CC5)cc34)cc2)CC1 [Example A203, (R)—N-(cyclopropyl(pyridin-2-yl)methyl)-3-(4-((1-formylpiperidin-4-yl)oxy)phenyl)-1H-indazole-5-carboxamide] |
| ≤ 5 µM | ≤ 5 µM | ≥ 5.30 | ≥ 5.30 | ≥ 5.30 | – | ≤ 5 µM | – | – | COc1cc(-c2n[nH]c3ccc(C(=O)NC(c4ccccn4)C4CC4)cc23)ccc1OC1CCN(C2COC2)CC1 (centres unmarked) [Example A195] |
| ≤ 5 µM | – | ≥ 5.30 | ≥ 5.30 | ≥ 5.30 | ≤ 5 µM | ≤ 5 µM | ≤ 5 µM | ≤ 5 µM | CCC(NC(=O)c1ccc2[nH]nc(-c3ccc(OC4CCN(C)CC4)cc3)c2c1)C1CCCCC1 (centres unmarked) [Example A69, N-(1-cyclohexylpropyl)-3-(4-((1-methylpiperidin-4-yl)oxy)phenyl)-1H-indazole-5-carboxamide] |
